# Reference: patent publication US20150197497A1, “SELECTIVE INHIBITORS OF HISTONE DEACETYLASE ISOFORM 6 AND METHODS THEREOF” (DANA-FARBER CANCER INSTITUTE, INC., priority 2011, published 2015)
# What was measured:
# [1] = system: acetylated histones; experiment: High-content image analysis of induction of acetylated histones in A549 cells; conditions: for levels of acetylated histone, dose response (in words): A549 cells, FIG. 11; for EC50: Homo sapiens, A549, 8 h, read-out: EC50 for half-maximal induction of acetylated histones (AcHistone)
# Procedure: Cells were treated with each test HDACi compound with an automated pin transfer instrument (Janus, Perkin Elmer) and incubated for 8 hours. […] Fixation solution was aspirated and 90 μL of washing solution (0.1% Triton X-100 in PBS) was added prior to 10 minute incubation at 4° C. Washing solution was aspirated and cells were incubated at 4° C. for about 1 hour in blocking solution (0.1% Triton X-100+2% BSA in PBS). Washing solution was aspirated, and cells were incubated for about 1 hour at 4° C. in primary antibody for acetylated-tubulin (Sigma T7451) and acetylated-histone (Cell Signaling #9441L) at a 1:1000 dilution in blocking solution. Primary antibody solution was aspirated, and cells were washed three times in 90 μL of washing solution. […] Secondary antibody and nuclear staining solution was aspirated and cells were washed three times in 90 μL of washing solution. After the third wash, 50 μL of PBS was added to each well. Image acquisition was done on a high content imaging microscope (ImageXpress Micro, Molecular Devices), and image analysis (MetaXpress, Molecular Devices) was performed to obtain average acetylated-tubulin and acetylated-histone signal per cell based on treatment. Replicate experimental data from incubations with inhibitor were normalized to DMSO controls.
# [2] = target: T1, HDAC2 (Homo sapiens, UniProt Q92769); experiment: In vitro HDAC enzyme inhibition assay, HDAC2; format: biochemical; conditions: for HDAC2/HDAC6 in vitro selectivity: ratio of IC50 for HDAC2 relative to that of HDAC6; for IC50: recombinant full-length HDAC2, substrate MAZ1600 22 μM
# T1 construct: Recombinant, full-length HDAC protein (BPS Biosciences) was incubated with fluorophore conjugated substrate; purchased BPS Biosciences
# T1 sequence (Q92769 whole entry): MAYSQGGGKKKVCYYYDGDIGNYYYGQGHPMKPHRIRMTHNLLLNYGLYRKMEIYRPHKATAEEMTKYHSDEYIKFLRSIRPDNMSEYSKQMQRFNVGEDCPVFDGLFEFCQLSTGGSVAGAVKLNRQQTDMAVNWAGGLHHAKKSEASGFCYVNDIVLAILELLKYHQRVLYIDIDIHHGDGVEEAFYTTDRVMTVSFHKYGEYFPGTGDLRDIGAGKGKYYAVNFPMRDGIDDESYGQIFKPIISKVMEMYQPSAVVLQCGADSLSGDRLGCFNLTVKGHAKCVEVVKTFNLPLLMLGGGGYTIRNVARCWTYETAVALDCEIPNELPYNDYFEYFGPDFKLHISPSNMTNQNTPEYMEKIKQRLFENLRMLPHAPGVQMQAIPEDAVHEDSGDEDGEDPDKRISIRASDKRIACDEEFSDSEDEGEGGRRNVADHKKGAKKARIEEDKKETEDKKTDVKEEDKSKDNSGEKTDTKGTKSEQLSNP
# Procedure: (§1) In vitro Histone Deacetylase enzyme assays were performed using Class I (isoforms: HDAC1, HDAC2, HDAC3 and HDAC8), class IIa (isoforms: HDAC4, HDAC5, HDAC7 and HDAC9) and class IIb (isoform HDAC6).
# (§2) HDAC activities were determined in vitro with an optimized homogenous assay performed in a 384-well plate. Recombinant, full-length HDAC protein (BPS Biosciences) was incubated with fluorophore conjugated substrate, MAZ1600 and MAZ1675, at Km=[S]. […] Reactions were performed in assay buffer (50 mM HEPES, 100 mM KCl, 0.001% Tween-20, 0.05% BSA, 200 μM tris(2-carboxyethyl)phosphine (TCEP), pH 7.4) and followed for fluorogenic release of 7-amino-4-methylcoumarin from substrate upon deacetylase and trypsin enzymatic activity. Fluorescence measurements were obtained every five minutes using a multilabel plate reader and plate-stacker (Envision; Perkin-Elmer). Each plate was analyzed by plate repeat, and the first derivative within the linear range was imported into analytical software (Spotfire DecisionSite and GraphPad Prism). Replicate experimental data from incubations with inhibitor were normalized to controls.
# [3] = target: T2, HDAC1 (Homo sapiens, UniProt Q13547); experiment: In vitro HDAC enzyme inhibition assay, HDAC1; format: biochemical; conditions: for HDAC1/HDAC6 in vitro selectivity: ratio of IC50 for HDAC1 relative to that of HDAC6; for IC50: recombinant full-length HDAC1, substrate MAZ1600 21 μM
# T2 construct: Recombinant, full-length HDAC protein (BPS Biosciences) was incubated with fluorophore conjugated substrate; purchased BPS Biosciences
# T2 sequence (Q13547 whole entry): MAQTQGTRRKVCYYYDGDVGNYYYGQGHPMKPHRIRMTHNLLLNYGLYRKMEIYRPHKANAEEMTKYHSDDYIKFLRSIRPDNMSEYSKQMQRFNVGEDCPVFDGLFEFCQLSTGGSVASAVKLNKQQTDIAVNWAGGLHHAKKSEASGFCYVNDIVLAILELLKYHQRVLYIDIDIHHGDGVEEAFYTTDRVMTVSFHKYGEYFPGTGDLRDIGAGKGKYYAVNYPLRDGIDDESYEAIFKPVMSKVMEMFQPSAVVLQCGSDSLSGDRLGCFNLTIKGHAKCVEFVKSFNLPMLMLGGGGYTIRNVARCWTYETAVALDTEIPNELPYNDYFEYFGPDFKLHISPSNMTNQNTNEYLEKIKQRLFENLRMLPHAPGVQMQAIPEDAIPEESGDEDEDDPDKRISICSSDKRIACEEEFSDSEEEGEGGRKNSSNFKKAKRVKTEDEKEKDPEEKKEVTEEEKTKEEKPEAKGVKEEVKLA
# Procedure: as §1, §2
# [4] = target: T3, HDAC9 (Homo sapiens, UniProt Q9UKV0); experiment: In vitro HDAC enzyme inhibition assay, HDAC9; format: biochemical; conditions: for HDAC9/HDAC6 in vitro selectivity: ratio of IC50 for HDAC9 relative to that of HDAC6; for IC50: recombinant full-length HDAC9, substrate MAZ1675 26 μM
# T3 construct: Recombinant, full-length HDAC protein (BPS Biosciences) was incubated with fluorophore conjugated substrate; purchased BPS Biosciences
# T3 sequence (Q9UKV0 whole entry): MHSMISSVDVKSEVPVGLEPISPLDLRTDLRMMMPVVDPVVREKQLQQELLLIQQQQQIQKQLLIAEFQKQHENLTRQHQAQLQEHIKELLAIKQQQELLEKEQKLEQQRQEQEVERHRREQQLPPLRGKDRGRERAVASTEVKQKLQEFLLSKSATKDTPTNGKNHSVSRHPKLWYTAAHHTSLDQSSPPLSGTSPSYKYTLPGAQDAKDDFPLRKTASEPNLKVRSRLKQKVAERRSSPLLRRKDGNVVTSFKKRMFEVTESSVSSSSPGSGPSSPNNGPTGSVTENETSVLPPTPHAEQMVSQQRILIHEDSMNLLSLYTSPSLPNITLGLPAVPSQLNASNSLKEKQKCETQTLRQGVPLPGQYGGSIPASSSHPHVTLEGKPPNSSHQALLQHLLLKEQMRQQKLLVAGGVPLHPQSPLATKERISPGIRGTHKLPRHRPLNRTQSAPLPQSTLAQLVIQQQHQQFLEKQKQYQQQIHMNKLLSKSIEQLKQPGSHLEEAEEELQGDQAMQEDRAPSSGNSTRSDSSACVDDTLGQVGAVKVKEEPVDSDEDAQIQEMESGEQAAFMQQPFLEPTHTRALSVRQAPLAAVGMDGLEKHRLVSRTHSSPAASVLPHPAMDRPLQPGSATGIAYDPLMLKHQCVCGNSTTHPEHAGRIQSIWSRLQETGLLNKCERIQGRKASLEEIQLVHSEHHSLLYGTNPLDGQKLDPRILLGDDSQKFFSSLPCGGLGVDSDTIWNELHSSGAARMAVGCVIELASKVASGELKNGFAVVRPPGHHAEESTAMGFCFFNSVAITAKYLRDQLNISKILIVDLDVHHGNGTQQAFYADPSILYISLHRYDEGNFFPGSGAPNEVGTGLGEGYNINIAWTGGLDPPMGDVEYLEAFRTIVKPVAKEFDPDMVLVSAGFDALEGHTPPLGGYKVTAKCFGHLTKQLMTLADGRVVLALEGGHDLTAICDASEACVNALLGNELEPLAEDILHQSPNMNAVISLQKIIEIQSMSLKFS
# Procedure: as §1, §2
# [5] = target: T4, HDAC8 (Homo sapiens, UniProt Q9BY41); experiment: In vitro HDAC enzyme inhibition assay, HDAC8; format: biochemical; conditions: for HDAC8/HDAC6 in vitro selectivity: ratio of IC50 for HDAC8 relative to that of HDAC6; for IC50: recombinant full-length HDAC8, substrate MAZ1675 282 μM
# T4 construct: Recombinant, full-length HDAC protein (BPS Biosciences) was incubated with fluorophore conjugated substrate; purchased BPS Biosciences
# T4 sequence (Q9BY41 1-377): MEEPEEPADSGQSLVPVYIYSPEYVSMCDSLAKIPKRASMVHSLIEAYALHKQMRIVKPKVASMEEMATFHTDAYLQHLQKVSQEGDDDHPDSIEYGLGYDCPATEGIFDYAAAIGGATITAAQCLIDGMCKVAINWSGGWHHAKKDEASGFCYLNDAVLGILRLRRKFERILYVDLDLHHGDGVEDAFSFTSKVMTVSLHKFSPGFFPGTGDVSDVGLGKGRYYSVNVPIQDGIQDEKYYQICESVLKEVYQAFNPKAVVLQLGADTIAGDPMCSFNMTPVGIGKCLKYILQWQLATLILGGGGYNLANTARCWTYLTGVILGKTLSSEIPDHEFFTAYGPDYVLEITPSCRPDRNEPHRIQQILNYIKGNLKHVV
# Procedure: as §1, §2
# [6] = target: T5, HDAC5 (Homo sapiens, UniProt Q9UQL6); experiment: In vitro HDAC enzyme inhibition assay, HDAC5; format: biochemical; conditions: for HDAC5/HDAC6 in vitro selectivity: ratio of IC50 for HDAC5 relative to that of HDAC6; for IC50: recombinant full-length HDAC5, substrate MAZ1675 40 μM
# T5 construct: Recombinant, full-length HDAC protein (BPS Biosciences) was incubated with fluorophore conjugated substrate; purchased BPS Biosciences
# T5 sequence (Q9UQL6 whole entry): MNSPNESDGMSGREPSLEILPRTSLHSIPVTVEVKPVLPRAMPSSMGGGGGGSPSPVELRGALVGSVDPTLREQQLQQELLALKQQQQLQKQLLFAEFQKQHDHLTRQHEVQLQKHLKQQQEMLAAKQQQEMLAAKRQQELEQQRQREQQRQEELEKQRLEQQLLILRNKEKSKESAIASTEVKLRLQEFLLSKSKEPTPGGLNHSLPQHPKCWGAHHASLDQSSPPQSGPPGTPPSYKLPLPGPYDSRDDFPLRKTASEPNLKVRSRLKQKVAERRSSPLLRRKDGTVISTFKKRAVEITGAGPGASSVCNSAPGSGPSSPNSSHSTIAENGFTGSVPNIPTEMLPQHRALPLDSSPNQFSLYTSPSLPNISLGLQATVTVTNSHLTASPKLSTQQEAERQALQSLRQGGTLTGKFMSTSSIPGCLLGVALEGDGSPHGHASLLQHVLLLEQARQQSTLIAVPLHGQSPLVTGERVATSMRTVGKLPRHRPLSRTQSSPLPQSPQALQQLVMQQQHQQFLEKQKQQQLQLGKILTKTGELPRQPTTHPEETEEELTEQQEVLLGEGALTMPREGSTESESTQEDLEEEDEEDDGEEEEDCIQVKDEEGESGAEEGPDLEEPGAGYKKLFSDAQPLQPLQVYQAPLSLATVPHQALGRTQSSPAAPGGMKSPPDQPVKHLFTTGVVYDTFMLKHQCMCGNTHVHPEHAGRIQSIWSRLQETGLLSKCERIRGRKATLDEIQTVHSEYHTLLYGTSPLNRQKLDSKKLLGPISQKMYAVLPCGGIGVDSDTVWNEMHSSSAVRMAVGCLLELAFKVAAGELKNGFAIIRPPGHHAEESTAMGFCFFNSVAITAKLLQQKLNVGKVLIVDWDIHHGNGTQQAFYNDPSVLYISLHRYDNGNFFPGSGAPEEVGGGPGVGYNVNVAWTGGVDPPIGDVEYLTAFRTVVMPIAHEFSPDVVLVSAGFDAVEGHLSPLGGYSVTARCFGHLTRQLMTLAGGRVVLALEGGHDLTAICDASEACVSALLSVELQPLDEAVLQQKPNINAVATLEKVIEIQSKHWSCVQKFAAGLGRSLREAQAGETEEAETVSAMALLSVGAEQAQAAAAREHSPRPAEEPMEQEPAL
# Procedure: as §1, §2
Compound,"levels of acetylated histone, dose response (in words) [1]",EC50 [1] [nM],HDAC2/HDAC6 in vitro selectivity [2],IC50 [2] [nM],HDAC1/HDAC6 in vitro selectivity [3],IC50 [3] [nM],HDAC9/HDAC6 in vitro selectivity [4],IC50 [4] [nM],HDAC8/HDAC6 in vitro selectivity [5],IC50 [5] [nM],HDAC5/HDAC6 in vitro selectivity [6],IC50 [6] [nM],selectivity toward HDAC6 compared to HDAC9 (in words) ([4]; tested in vitro)
"O=C(NO)c1ccc(Cn2c(C(F)(F)F)nc3ccccc32)cc1 [A1, N-hydroxy-4-((2-(trifluoromethyl)-1H-benzo[d]imidazol-1-yl)methyl)benzamide]",absence of the dose-dependent response,6340,1230,581,1444,682,2167,1020,3764,1780,953,450,
"Cc1ccc2c(c1)nc(C(F)(F)F)n2Cc1ccc(C(=O)NO)cc1 [A2, N-hydroxy-4-((5-methyl-2-(trifluoromethyl)-1H-benzo[d]imidazol-1-yl)methyl)benzamide]",,242,553,169,808,247,1942,594,4364,1330,537,164,
"O=C(NO)c1ccc(Cn2c(C(F)(F)F)nc3cc(F)ccc32)cc1 [A3, 4-((5-fluoro-2-(trifluoromethyl)-1H-benzo[d]imidazol-1-yl)methyl)-N-hydroxybenzamide]",,592,844,484,812,466,2127,1220,2540,1460,486,279,
"O=C(NO)c1ccc(Cn2c(C(F)(F)F)nc3cc(Cl)ccc32)cc1 [A4, 4-((5-chloro-2-(trifluoromethyl)-1H-benzo[d]imidazol-1-yl)methyl)-N-hydroxybenzamide]",absence of the dose-dependent response,14900,259,300,343,398,943,1090,1240,1440,246,285,
"O=C(NO)c1ccc(Cn2c(C(F)(F)F)nc3cc(Br)ccc32)cc1 [A5, 4-((5-bromo-2-(trifluoromethyl)-1H-benzo[d]imidazol-l-yl)methyl)-N-hydroxybenzamide]",,1930,471,146,541,167,2420,750,3501,1080,476,148,
"COc1ccc2c(c1)nc(C(F)(F)F)n2Cc1ccc(C(=O)NO)cc1 [A6, N-hydroxy-4-((5-methoxy-2-(trifluoromethyl)-1H-benzo[d]imidazol-1-yl)methyl)benzamide]",,2590,522,205,629,246,1871,733,3927,1540,637,250,
O=C(NO)c1ccc(Cn2cnc3ccccc32)cc1 [A7],,232,1853,181,2695,264,16631,1630,6573,643,9794,958,
"Cc1ccc2c(c1)ncn2Cc1ccc(C(=O)NO)cc1 [A8, N-hydroxy-4-((5-methyl-1H-benzo[d]imidazol-1-yl)methyl)benzamide]",,79.5,762,290,688,262,5975,2280,2847,1080,3687,1400,
"O=C(NO)c1ccc(Cn2cnc3cc(F)ccc32)cc1 [A9, 4-((5-fluoro-1H-benzo[d]imidazol-1-yl)methyl)-N-hydroxybenzamide]",,62.7,3132,208,2812,186,32978,2190,12348,819,15350,1020,"exceptionally high selectivity (Inhibitors with in vitro selectivity values for HDAC6 of at least 30,000 are considered to have exceptionally high selectivity toward HDAC6)"
"O=C(NO)c1ccc(Cn2cnc3cc(Cl)ccc32)cc1 [A10, 4-((5-chloro-1H-benzo[d]imidazol-1-yl)methyl)-N-hydroxybenzamide]",,900,1364,94.1,1399,96.5,17278,1190,7524,519,9686,668,
